No end group written: not given here.
Tests used:
[1] = tested on: ACTH secretion; details: reported in prior art; cited from earlier work
[2] = tested on: brain vascular permeability after cold injury; assay: Cold (freeze) injury to brain, vascular leakage by Monastral blue staining; type: in vivo, rat
Source text: An in vivo model of injury to study brain edema has been developed as a reproducible edema model, which has the features of immediate cortical damage followed by the subsequent development of brain edema. This model is described by Chan et al., Brain Research 277, pp. 329-337 (1983). The model uses rats which are anesthetized. A 2.5 cm incision is made over the sagittal suture and the bone of the right hemisphere exposed. A 60 mm^2 plate attached to a brass cup filled with dry ice-acetone mixture, with a temperature of -50° C., is applied to the rat skull for one minute. The animals are sacrificed at various intervals after the onset of cold-injury. A dye is administered intravenously before the freezing. Cortical slices are then obtained of the brain.
16 male rats were randomly divided into eight pairs and one rat in each pair received either saline or CRF (subcutaneously twice at 30 μg/kg, 30 min and 10 min before cold injury). The animals were anesthetized with sodium pentobarbital, 60 mg/kg intraperitoneally, and injected with Monastral blue, 60 mg/kg intravenously. A cold probe was applied onto the skull for […] and the brains taken out 1 hour after cold injury. The staining of brain tissues with Monastral blue, a colloidal pigment that gets trapped between the albuminal surface of the endothelial cell and the basement membrane, was proportional to the degree of vascular leakage. The results from the first pair are shown as FIG. 1.
The size of the lesion, measured as area in mm^2, and the degree of staining intensity, were quantified using an image-analysis software program called JAVA (Jandel Corporation, San Rafael, Calif.). The stain intensity, given in arbitrary units, was internally calibrated using Monastral blue solutions (1-30 mg/ml) placed on white filter paper. Values are mean ± S.E.M.

[3] = tested on: brain edema after freeze injury; assay: Freeze injury to cerebral cortex, brain water and sodium content (brain edema); type: in vivo, rat; details: CRF 30 μg/kg s.c. 2×, tissues 3 hr after injury, ± S.E.M., N = 5
Method: In a second set of experiments, the brain surface, namely the cerebral cortex, was injured by freezing and the water and sodium content were measured in the cerebral cortex and in the basal ganglia, a part of the brain away from the freeze zone. The water and sodium content of the brain tissue served as an index of brain edema. After freeze injury, the water and sodium content of the cerebral cortex were evaluated relative to non-frozen tissues. CRF administered in two separate doses of 30 μg/kg subcutaneously, one dose 15 min. before the injury and the second dose 90 min. after the first dose, inhibited the two indices of brain edema.
Male SpragueDawley rats, 300-325 g, anesthetized with
ketamineacepromazine, were injected saline or CRF (30 μg/kg s.c.
2×) and injury to cerebral cortex was produced by applying a cold
probe to the skull for 1 min. Brain tissues were obtained 3 hr later and
analyzed for water and sodium content.

[4] = tested on: PAF-acether induced vascular leakage in muscle; assay: Vascular leakage produced by PAF-acether injected subcutaneously into the abdomen; type: in vivo, rat
Method: CRF: 30 μg/kg s.c. injected 30 min before subcutaneous
injection of PAF-acether (1 μg/0.1 ml/rat) into the
abdomen; muscle removed 0.5 hr later.

[5] = tested on: muscle vascular permeability after celiotomy; assay: Vascular leakage after celiotomy (4 cm midline incision through abdominal muscle wall), Monastral blue; type: in vivo, rat; details: for Area / Intensity / Lesion Size: tissues taken 0.5 hr after surgery; for vascular leakage (lesion size) relative to that of the saline-treated group: Table III
Method: Experiments were conducted on male Sprague-Dawley rats 243±15 gm (S.D., Simonsen Labs., Gilroy, Calif.) anesthetized with sodium pentobarbital, 60 mg/kg i.p. Monastral blue, 60 mg/kg i.v., was injected 0.2 ml/100 g, 3 min. before a 4 cm midline incision through the abdominal muscle wall (celiotomy). Saline or CRF was administered to randomized pairs with N=8 rats per group. The size of the lesion, measured as area in mm^2, and its light intensity, were quantified using the JAVA image-analysis software program. The light intensity, given in arbitrary units, was internally calibrated using Monastral blue solutions (1-30 mg/ml) placed on white filter paper. Values are mean ± S.E.M. FIG. 2 illustrates the respective amount of vascular permeability for one pair of rats (control and treated). Tables III and IV set out data from these experiments.
CRF: injected at various doses subcutaneously 30 min
before a 4 cm midline incision, tissues taken 0.5 hr
CRF: 30 μg/kg s.c. injected 2 hr before a 4 cm midline
incision, tissues taken 0.5 hr after surgery

[6] = tested on: edema of rat pawskin; details: mediators injected into the rat pawskin; previously shown; cited from earlier work
[7] = tested on: blood pressure; details: reported in prior art; cited from earlier work
[8] = rat, CRF 30 μg/kg s.c. twice, 30 min and 10 min before cold injury, brains taken 1 hour after injury, mean ± S.E.M.
[9] = CRF 30 μg/kg s.c. 30 min before PAF-acether 1 μg/0.1 ml/rat s.c., muscle removed 0.5 hr later
[10] = CRF 15 μg/kg s.c. 30 min before incision
[11] = CRF 30 μg/kg s.c. 30 min before incision
[12] = CRF 30 μg/kg s.c. 2 hr before incision
[13] = CRF 60 μg/kg s.c. 30 min before incision

Ser-Glu-Glu-Pro-Pro-Ile-Ser-Leu-Asp-Leu-Thr-Phe-His-Leu-Leu-Arg-Glu-Val-Leu-Glu-Met-Ala-Arg-Ala-Glu-Gln-Leu-Ala-Gln-Gln-Ala-His-Ser-Asn-Arg-Lys-Leu-Met-Glu-Ile-Ile-NH^2 (SEEPPISLDLTFHLLREVLEMARAEQLAQQAHSNRKLMEII-NH2) [CRF, 41 amino acid neuropeptide]
effect on ACTH secretion [1]: stimulates ACTH release from pituitary cells | lesion size relative to that of the saline-treated group ([2]; Table I, brain cold injury, CRF 30 μg/kg s.c. twice): 44% | correct assignment of brains to saline or CRF group by an observer unaware of pretreatment ([2]; eight pairs of rats, more damaged vs less damaged brain): 8 out of 8 | Area [2, 8]: 20.8 ± 1.2 mm^2 | Intensity (staining intensity) [2, 8]: 2.0 ± 0.05 arbitrary units | Lesion Size [2, 8]: 43 ± 3 | SODIUM ([3]; BASAL GANGLIA (non-injured)): 215 ± 9 mEg/kg dry wt | WATER CONTENT ([3]; BASAL GANGLIA (non-injured)): 76 ± 1% | SODIUM ([3]; CEREBRAL CORTEX (injured)): 271 ± 8 mEg/kg dry wt | WATER CONTENT ([3]; CEREBRAL CORTEX (injured)): 77 ± 4% | Area [4, 9]: 188 ± 16 mm^2 | Intesnity [4, 9]: 1.4 ± 0.05 | Lesion Size [4, 9]: 260 ± 26 | muscle lesion size relative to that of the saline-treated control group ([4]; Table V, CRF 30 μg/kg s.c.): 44% | Area [5, 10]: 505 ± 16 mm^2 | Intensity [5, 10]: 2.0 ± 0.03 arbitrary units | Lesion Size [5, 10]: 1031 ± 44 | Area [5, 11]: 361 ± 18 mm^2 | Intensity [5, 11]: 1.9 ± 0.05 arbitrary units | Lesion Size [5, 11]: 676 ± 47 | Area [5, 12]: 477 ± 31 mm^2 | Intensity [5, 12]: 1.9 ± 0.03 arbitrary units | Lesion Size [5, 12]: 919 ± 51 | Area [5, 13]: 257 ± 3 mm^2 | Intensity [5, 13]: 1.8 ± 0.05 arbitrary units | Lesion Size [5, 13]: 468 ± 19 | vascular leakage (lesion size) relative to that of the saline-treated group [5, 10]: 63% | vascular leakage (lesion size) relative to that of the saline-treated group [5, 11]: 42% | vascular leakage (lesion size) relative to that of the saline-treated group [5, 13]: 29% | lesion size relative to that of the saline-treated group ([5]; Table IV, CRF 30 μg/kg s.c. 2 hr before incision): 59% | effect on edema produced by serotonin, substance P, bradykinin, neurotensin, histamine [6]: antagonize the edema-producing properties

CC[C@H](C)[C@H](NC(=O)[C@@H](NC(=O)[C@H](CC(=O)O)NC(=O)[C@H](CC(C)C)NC(=O)[C@H](CC(C)C)NC(=O)[C@H](CC(C)C)NC(=O)[C@H](CCCNC(=N)N)NC(=O)[C@H](CC(N)=O)NC(=O)[C@H](CC(N)=O)NC(=O)[C@H](C)NC(=O)[C@H](C)NC(=O)[C@H](CCC(N)=O)NC(=O)[C@H](CCC(N)=O)NC(=O)[C@H](CCCCN)NC(=O)[C@H](CCC(=O)O)NC(=O)[C@H](CCCCN)NC(=O)[C@H](CCC(=O)O)NC(=O)[C@H](CCC(N)=O)NC(=O)[C@H](CCCCN)NC(=O)[C@H](CCC(=O)O)NC(=O)[C@@H](NC(=O)[C@H](CCC(=O)O)NC(=O)[C@@H](NC(=O)[C@H](CCSC)NC(=O)[C@H](CCCCN)NC(=O)[C@H](CCCNC(=N)N)NC(=O)[C@H](CC(C)C)NC(=O)[C@H](CC(C)C)NC(=O)[C@H](CCC(=O)O)NC(=O)[C@H](CC(C)C)NC(=O)[C@H](CO)NC(=O)[C@H](CC(C)C)NC(=O)[C@H](CC(=O)O)NC(=O)[C@@H](NC(=O)[C@H](CO)NC(=O)[C@@H](NC(=O)[C@@H]1CCCN1C(=O)[C@@H]1CCCN1C(=O)CNC(=O)[C@@H]1CCC(=O)N1)[C@@H](C)CC)[C@@H](C)CC)[C@@H](C)CC)[C@@H](C)CC)[C@@H](C)O)C(N)=O [Sauvagine]
effect on ACTH secretion [1]: stimulating the secretion of ACTH | effect on blood pressure [7]: lowering blood pressure

H-Asn-Asp-Asp-Pro-Pro-Ile-Ser-Ile-Asp-Leu-Thr-Phe-His-Leu-Leu-Arg-Asn-Met-Ile-Glu-Met-Ala-Arg-Asn-Glu-Asn-Gln-Arg-Glu-Gln-Ala-Gly-Leu-Asn-Arg-Lys-Tyr- Leu-Asp-Glu-Val-NH2 (H-NDDPPISIDLTFHLLRNMIEMARNENQREQAGLNRKYLDEV-NH2) [carp urotensin]
effect on ACTH secretion [1]: stimulate ACTH | effect on blood pressure [7]: lower blood pressure

Ser-Gln-Glu-Pro-Pro-Ile-Ser-Leu-Asp-Leu-Thr-Phe-His-Leu-Leu-Arg-Glu-Val-Leu-Glu-Met-Thr-Lys-Ala-Asp-Gln-Leu-Ala-Gln-Gln-Ala-His-Ser-Asn-Arg-Lys-Leu-Leu-Asp-Ile-Ala-NH2 (SQEPPISLDLTFHLLREVLEMTKADQLAQQAHSNRKLLDIA-NH2) [oCRF]
effect on blood pressure [7]: lower blood pressure

Reference: US5137871A, “Treatment to reduce edema for brain and musculature injuries” (Regents of the University of California, priority 1989, dated 1992)
